According to the NIST ThermoML archive (doi:10.1021/acs.jced.8b00979):
Numbers after ± are expanded uncertainties.

Experiment: xn = mol fraction of the nth substance listed
Settings: 288.15 K; 100 kPa; Liquid; Capillary tube (Ostwald / Ubbelohde) method; x1 = 1
Work on `CCCC(C)O` (centres undefined) [pentan-2-ol] + CCC(C)CO yielded a viscosity of 5.057 ± 0.2 mPa·s.
With `CCCCCO` [pentan-1-ol] + CCCC(C)O the viscosity was 4.698 ± 0.19 mPa·s.
`CCCCCO` [pentan-1-ol] + CCC(C)CO gave a viscosity of 4.698 ± 0.19 mPa·s.

Same assay, conditions: 288.15 K; 100 kPa; Liquid; Vibrating tube method; x1 = 1
`CCCC(C)O` (centres undefined) [pentan-2-ol] + CCC(C)CO showed a mass density of 813.34 ± 0.79 kg/m3.
For `CCCCCO` [pentan-1-ol] + CCCC(C)O, the mass density was 818.56 ± 0.79 kg/m3.
With `CCCCCO` [pentan-1-ol] + CCC(C)CO the mass density was 818.56 ± 0.79 kg/m3.

Same assay, conditions: 293.15 K; 100 kPa; Liquid; Capillary tube (Ostwald / Ubbelohde) method; x1 = 1
Work on `CCCC(C)O` (centres undefined) [pentan-2-ol] + CCC(C)CO yielded a viscosity of 4.174 ± 0.17 mPa·s.
In the case of `CCCCCO` [pentan-1-ol] + CCCC(C)O, the viscosity is reported as 4.043 ± 0.16 mPa·s.
With `CCCCCO` [pentan-1-ol] + CCC(C)CO the viscosity was 4.043 ± 0.16 mPa·s.

Same assay, conditions: 293.15 K; 100 kPa; Liquid; Vibrating tube method; x1 = 1
`CCCC(C)O` (centres undefined) [pentan-2-ol] + CCC(C)CO gave a mass density of 809.38 ± 0.78 kg/m3.
In the case of `CCCCCO` [pentan-1-ol] + CCCC(C)O, the mass density is reported as 814.92 ± 0.79 kg/m3.
Compound `CCCCCO` [pentan-1-ol] + CCC(C)CO has a mass density of 814.92 ± 0.79 kg/m3.

Same assay, conditions: 298.15 K; 100 kPa; Liquid; Capillary tube (Ostwald / Ubbelohde) method; x1 = 1
In the case of `CCCC(C)O` (centres undefined) [pentan-2-ol] + CCC(C)CO, the viscosity is reported as 3.398 ± 0.14 mPa·s.
For `CCCCCO` [pentan-1-ol] + CCCC(C)O, the viscosity was 3.501 ± 0.14 mPa·s.
Compound `CCCCCO` [pentan-1-ol] + CCC(C)CO has a viscosity of 3.501 ± 0.14 mPa·s.

Same assay, conditions: 298.15 K; 100 kPa; Liquid; Vibrating tube method; x1 = 1
`CCCC(C)O` (centres undefined) [pentan-2-ol] + CCC(C)CO gave a mass density of 805.35 ± 0.78 kg/m3.
Compound `CCCCCO` [pentan-1-ol] + CCCC(C)O has a mass density of 811.26 ± 0.79 kg/m3.
In the case of `CCCCCO` [pentan-1-ol] + CCC(C)CO, the mass density is reported as 811.26 ± 0.79 kg/m3.

Same assay, conditions: 303.15 K; 100 kPa; Liquid; Capillary tube (Ostwald / Ubbelohde) method; x1 = 1
Compound `CCCC(C)O` (centres undefined) [pentan-2-ol] + CCC(C)CO has a viscosity of 2.82 ± 0.11 mPa·s.
In the case of `CCCCCO` [pentan-1-ol] + CCCC(C)O, the viscosity is reported as 3.028 ± 0.12 mPa·s.
In the case of `CCCCCO` [pentan-1-ol] + CCC(C)CO, the viscosity is reported as 3.028 ± 0.12 mPa·s.

Same assay, conditions: 303.15 K; 100 kPa; Liquid; Vibrating tube method; x1 = 1
Compound `CCCC(C)O` (centres undefined) [pentan-2-ol] + CCC(C)CO has a mass density of 801.24 ± 0.78 kg/m3.
`CCCCCO` [pentan-1-ol] + CCCC(C)O showed a mass density of 807.57 ± 0.78 kg/m3.
In the case of `CCCCCO` [pentan-1-ol] + CCC(C)CO, the mass density is reported as 807.57 ± 0.78 kg/m3.

Same assay, conditions: 308.15 K; 100 kPa; Liquid; Capillary tube (Ostwald / Ubbelohde) method; x1 = 1
With `CCCC(C)O` (centres undefined) [pentan-2-ol] + CCC(C)CO the viscosity was 2.336 ± 0.094 mPa·s.
With `CCCCCO` [pentan-1-ol] + CCCC(C)O the viscosity was 2.671 ± 0.11 mPa·s.
`CCCCCO` [pentan-1-ol] + CCC(C)CO gave a viscosity of 2.671 ± 0.11 mPa·s.

Same assay, conditions: 308.15 K; 100 kPa; Liquid; Vibrating tube method; x1 = 1
Work on `CCCC(C)O` (centres undefined) [pentan-2-ol] + CCC(C)CO yielded a mass density of 797.05 ± 0.77 kg/m3.
For `CCCCCO` [pentan-1-ol] + CCCC(C)O, the mass density was 803.86 ± 0.78 kg/m3.
Compound `CCCCCO` [pentan-1-ol] + CCC(C)CO has a mass density of 803.86 ± 0.78 kg/m3.

Same assay, conditions: 313.15 K; 100 kPa; Liquid; Capillary tube (Ostwald / Ubbelohde) method; x1 = 1
For `CCCC(C)O` (centres undefined) [pentan-2-ol] + CCC(C)CO, the viscosity was 1.99 ± 0.08 mPa·s.
With `CCCCCO` [pentan-1-ol] + CCCC(C)O the viscosity was 2.335 ± 0.094 mPa·s.
Compound `CCCCCO` [pentan-1-ol] + CCC(C)CO has a viscosity of 2.335 ± 0.094 mPa·s.

Same assay, conditions: 313.15 K; 100 kPa; Liquid; Vibrating tube method; x1 = 1
`CCCC(C)O` (centres undefined) [pentan-2-ol] + CCC(C)CO gave a mass density of 792.78 ± 0.77 kg/m3.
In the case of `CCCCCO` [pentan-1-ol] + CCCC(C)O, the mass density is reported as 800.11 ± 0.78 kg/m3.
Compound `CCCCCO` [pentan-1-ol] + CCC(C)CO has a mass density of 800.11 ± 0.78 kg/m3.

Same assay, conditions: 318.15 K; 100 kPa; Liquid; Capillary tube (Ostwald / Ubbelohde) method; x1 = 1
In the case of `CCCC(C)O` (centres undefined) [pentan-2-ol] + CCC(C)CO, the viscosity is reported as 1.706 ± 0.069 mPa·s.
Compound `CCCCCO` [pentan-1-ol] + CCCC(C)O has a viscosity of 2.052 ± 0.083 mPa·s.
`CCCCCO` [pentan-1-ol] + CCC(C)CO gave a viscosity of 2.052 ± 0.083 mPa·s.

Same assay, conditions: 318.15 K; 100 kPa; Liquid; Vibrating tube method; x1 = 1
`CCCC(C)O` (centres undefined) [pentan-2-ol] + CCC(C)CO showed a mass density of 788.42 ± 0.77 kg/m3.
In the case of `CCCCCO` [pentan-1-ol] + CCCC(C)O, the mass density is reported as 796.32 ± 0.77 kg/m3.
For `CCCCCO` [pentan-1-ol] + CCC(C)CO, the mass density was 796.32 ± 0.77 kg/m3.

Same assay, conditions: 323.15 K; 100 kPa; Liquid; Capillary tube (Ostwald / Ubbelohde) method; x1 = 1
For `CCCC(C)O` (centres undefined) [pentan-2-ol] + CCC(C)CO, the viscosity was 1.472 ± 0.06 mPa·s.
Work on `CCCCCO` [pentan-1-ol] + CCCC(C)O yielded a viscosity of 1.81 ± 0.073 mPa·s.
`CCCCCO` [pentan-1-ol] + CCC(C)CO showed a viscosity of 1.81 ± 0.073 mPa·s.

Same assay, conditions: 323.15 K; 100 kPa; Liquid; Vibrating tube method; x1 = 1
Compound `CCCC(C)O` (centres undefined) [pentan-2-ol] + CCC(C)CO has a mass density of 783.99 ± 0.76 kg/m3.
With `CCCCCO` [pentan-1-ol] + CCCC(C)O the mass density was 792.48 ± 0.77 kg/m3.
`CCCCCO` [pentan-1-ol] + CCC(C)CO showed a mass density of 792.48 ± 0.77 kg/m3.

Same assay, conditions: 328.15 K; 100 kPa; Liquid; Capillary tube (Ostwald / Ubbelohde) method; x1 = 1
`CCCC(C)O` (centres undefined) [pentan-2-ol] + CCC(C)CO gave a viscosity of 1.306 ± 0.053 mPa·s.
For `CCCCCO` [pentan-1-ol] + CCCC(C)O, the viscosity was 1.607 ± 0.065 mPa·s.
`CCCCCO` [pentan-1-ol] + CCC(C)CO gave a viscosity of 1.607 ± 0.065 mPa·s.

Same assay, conditions: 328.15 K; 100 kPa; Liquid; Vibrating tube method; x1 = 1
In the case of `CCCC(C)O` (centres undefined) [pentan-2-ol] + CCC(C)CO, the mass density is reported as 779.46 ± 0.76 kg/m3.
`CCCCCO` [pentan-1-ol] + CCCC(C)O gave a mass density of 788.61 ± 0.76 kg/m3.
`CCCCCO` [pentan-1-ol] + CCC(C)CO gave a mass density of 788.61 ± 0.76 kg/m3.
